The values that follow come from PubChem BioAssay (NCI).

Molecules are shown by their SMILES.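 Step 1: Grow cells in 96-well plates. Step 2: Expose to compound for 48 hours at 5 concentrations. Step 3: Interpolate endpoints linearly; if unreached, use highest concentration. At the TGI there is no net growth.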 A value given as a limit tells only on which side of the number the result lay.

Some test systems named below: HCT-116 colon; COLO 205 colon; TK-10 renal; CAKI-1 renal; DU-145 prostate; SR leukemia; NCI-H522 lung; K-562 leukemia; SF-295 CNS; ACHN renal; MOLT-4 leukemia; LOX IMVI melanoma; A549 NSCLC; HL-60(TB) leukemia; NCI-H23 lung; NCI-H226 lung; HOP-62 NSCLC; SF-268 CNS; A498 renal; HS 578T breast.
Common to all, as to experiment: NCI tumour cell line growth inhibition, 48 h

In the case of `COC(=O)C1=C(C(=O)OC)C(Cc2ccccc2)(OO)OC1=O` (configuration not stated), the TGI is over 100 µM in the assay on HCT-116 colon; over 100 µM in the assay with COLO 205 colon; 15 µM in the assay on TK-10 renal; 19.4 µM with CAKI-1 renal; over 100 µM in the assay on DU-145 prostate; over 100 µM in the assay on SR leukemia. The TGI with NCI-H522 lung is 6.71 µM; in the assay on K-562 leukemia, 63.7 µM; in the assay with SF-295 CNS it was over 100 µM; in the assay on ACHN renal it was 9.36 µM; with MOLT-4 leukemia, 30.8 µM; in the assay on LOX IMVI melanoma, 22.8 µM. Moreover, the TGI in the assay on A549 NSCLC was over 100 µM; in the assay with HL-60(TB) leukemia it was 3.66 µM; with NCI-H23 lung, 44.4 µM; in the assay on NCI-H226 lung it was 35.9 µM.

As for `CCOC(=O)[C@]12C(=C(c3ccccc3)O[C@H]3C=CCC[C@H]31)C(=O)C(=O)N2c1ccccc1`, the TGI in the assay on HCT-116 colon, with HOP-62 NSCLC, with COLO 205 colon, in the assay with TK-10 renal, in the assay on CAKI-1 renal and with DU-145 prostate was over 100 µM throughout. The TGI was over 100 µM with SF-268 CNS; 46.8 µM with SR leukemia; over 100 µM in the assay with NCI-H522 lung; 84.5 µM in the assay on K-562 leukemia; over 100 µM in the assay on SF-295 CNS; over 100 µM in the assay with ACHN renal. Besides, the TGI in the assay with A498 renal was over 100 µM; in the assay on MOLT-4 leukemia it was 61.3 µM; in the assay on A549 NSCLC, over 100 µM; with NCI-H23 lung, over 100 µM.

For `COc1ccc(NC(=O)CC(=O)N2N=C(N(CCC#N)c3ccccc3Cl)CC2c2ccccc2)cc1` (configuration not stated), the TGI in the assay with HCT-116 colon, in the assay with HOP-62 NSCLC, in the assay on COLO 205 colon, in the assay with TK-10 renal, in the assay on CAKI-1 renal and with SF-268 CNS was over 100 µM in each case. Further, the TGI in the assay with SR leukemia, in the assay with NCI-H522 lung, in the assay on K-562 leukemia, in the assay with SF-295 CNS, in the assay with ACHN renal and in the assay with A498 renal was over 100 µM each time. Moreover, the TGI in the assay with MOLT-4 leukemia, in the assay on LOX IMVI melanoma, in the assay on A549 NSCLC, in the assay on HL-60(TB) leukemia, in the assay with NCI-H23 lung and in the assay with NCI-H226 lung was over 100 µM in each case.

With `C#CCNC(=O)NCCCC(NC(C)=O)C(=O)NCc1ccccc1` (configuration not stated), the TGI in the assay on HCT-116 colon, with HOP-62 NSCLC, in the assay with COLO 205 colon, in the assay with TK-10 renal, in the assay with CAKI-1 renal and in the assay on SF-268 CNS was over 100 µM each time. In addition, the TGI in the assay on SR leukemia, in the assay on NCI-H522 lung, in the assay on K-562 leukemia, in the assay with SF-295 CNS, in the assay on ACHN renal and in the assay on A498 renal was over 100 µM throughout. Also, the TGI in the assay on MOLT-4 leukemia, in the assay on LOX IMVI melanoma, with A549 NSCLC, with HL-60(TB) leukemia, in the assay with NCI-H23 lung and in the assay with NCI-H226 lung was over 100 µM throughout.

As to `O=c1[nH]cnc2c1sc1nc3ccccc3n12`, the TGI in the assay on HCT-116 colon, in the assay with HOP-62 NSCLC, with COLO 205 colon, in the assay with TK-10 renal, in the assay with CAKI-1 renal and in the assay with DU-145 prostate was over 100 µM each time. Moreover, the TGI with SF-268 CNS, in the assay with NCI-H522 lung, in the assay on SF-295 CNS, in the assay on ACHN renal, with A498 renal and in the assay on MOLT-4 leukemia was over 100 µM in each case. Also, the TGI with LOX IMVI melanoma, in the assay on HS 578T breast, in the assay on A549 NSCLC, in the assay with NCI-H23 lung and in the assay with NCI-H226 lung was over 100 µM in each case.

In the case of `NC(=O)C#CC#CC#CCO`, the TGI with HCT-116 colon stood at 2.59 µM; in the assay on HOP-62 NSCLC, 23.1 µM; in the assay on COLO 205 colon, 2.65 µM; in the assay on TK-10 renal, 3.01 µM; in the assay on SR leukemia, 4.54 µM; in the assay on NCI-H522 lung it was 0.301 µM. Besides, the TGI with K-562 leukemia came out at 4.65 µM; with SF-295 CNS, 11.6 µM; with ACHN renal it was 2.61 µM; in the assay on A498 renal, 14.9 µM; in the assay with MOLT-4 leukemia, 2.67 µM; in the assay with LOX IMVI melanoma, 3.83 µM. Further, the TGI in the assay on A549 NSCLC is 16.5 µM; in the assay on HL-60(TB) leukemia it was 3.01 µM; with NCI-H23 lung, 3.93 µM; in the assay on NCI-H226 lung, 27.5 µM.

As to `COc1ccc(/C=C2\C(=O)N(C)C(=O)c3cc(OC)c(OC)cc32)cc1OC`, the TGI was over 100 µM in the assay on HCT-116 colon; 90 µM in the assay with HOP-62 NSCLC; 47.9 µM with COLO 205 colon; over 100 µM in the assay on TK-10 renal; over 100 µM with CAKI-1 renal; over 100 µM with DU-145 prostate. In addition, the TGI is 55.5 µM in the assay on SR leukemia; 36.4 µM in the assay on NCI-H522 lung; over 100 µM in the assay on K-562 leukemia; 78.7 µM in the assay with SF-295 CNS; over 100 µM in the assay with ACHN renal; over 100 µM in the assay with A498 renal. In addition, the TGI in the assay with MOLT-4 leukemia was over 100 µM; in the assay on LOX IMVI melanoma, 34.1 µM; with A549 NSCLC, over 100 µM; with HL-60(TB) leukemia, 40.1 µM; with NCI-H23 lung, over 100 µM; in the assay on NCI-H226 lung it was 34.7 µM.

With `CC(C)CC[C@H](O)[C@@H](C)[C@H]1[C@@H](OC2OC(C)C(O)C(O)C2O)C[C@H]2[C@@H]3CC=C4C[C@@H](O)CC[C@]4(C)[C@H]3[C@@H](O)C[C@]12C` (some centres not stated), the TGI with HCT-116 colon was over 100 µM; in the assay on HOP-62 NSCLC, over 68.7 µM; in the assay with COLO 205 colon it was 7.17 µM; in the assay with TK-10 renal, over 100 µM; in the assay on CAKI-1 renal, over 64 µM; in the assay on DU-145 prostate, over 100 µM. Besides, the TGI in the assay on SF-268 CNS is over 100 µM; with NCI-H522 lung, over 100 µM; in the assay on K-562 leukemia, 0.422 µM; in the assay with SF-295 CNS it was 0.222 µM; in the assay on ACHN renal, over 100 µM; in the assay with A498 renal, over 34.9 µM. Also, the TGI is 0.508 µM in the assay with MOLT-4 leukemia; over 100 µM with LOX IMVI melanoma; 2.36 µM with HS 578T breast; over 100 µM in the assay on A549 NSCLC; over 100 µM with HL-60(TB) leukemia; over 100 µM in the assay on NCI-H23 lung.
